In PubChem BioAssay AID330 (DTP/NCI, 2004):
Where “and” joins values, the source holds several entries; their conditions need not be identical. Equal values may be shown once. Toxic doses and inconclusive results are not listed.

System: P388 leukemia ip, CD2F1 mice, survival T/C
Assay: NCI In Vivo Anticancer Drug Screen. Data for tumor model P388 Leukemia (intraperitoneal) in CD2F1 (CDF1) mice
Details: endpoint: median survival time, higher = longer survival
Outline: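 Mice carrying the transplanted tumor received test compound or vehicle. Survival was recorded in each group, and the value is the treated-group measurement divided by that of the vehicle-treated control group.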

[1] = dose: 60.0 mg/kg/injection, schedule: Q01DX005 (ip), vehicle: Klucel (hydroxypropylcellulose) (HPC)
[2] = dose: 25.0 mg/kg/injection, schedule: Q01DX001 (ip), vehicle: saline with Tween-80
[3] = dose: 50.0 mg/kg/injection, schedule: Q01DX001 (ip), vehicle: saline with Tween-80
[4] = dose: 100.0 mg/kg/injection, schedule: Q01DX001 (ip), vehicle: saline with Tween-80
[5] = dose: 50.0 mg/kg/injection, schedule: Q01DX005 (ip), vehicle: Klucel (hydroxypropylcellulose) (HPC)
[6] = dose: 120.0 mg/kg/injection, schedule: Q01DX005 (ip), vehicle: Klucel (hydroxypropylcellulose) (HPC)
[7] = dose: 240.0 mg/kg/injection, schedule: Q01DX005 (ip), vehicle: Klucel (hydroxypropylcellulose) (HPC)
[8] = dose: 25.0 mg/kg/injection, schedule: Q01DX009 (ip), vehicle: Klucel (hydroxypropylcellulose) (HPC)
[9] = dose: 50.0 mg/kg/injection, schedule: Q01DX009 (ip), vehicle: saline with Tween-80
[10] = dose: 100.0 mg/kg/injection, schedule: Q01DX009 (ip), vehicle: saline with Tween-80
[11] = dose: 25.0 mg/kg/injection, schedule: Q01DX009 (ip), vehicle: saline with Tween-80

## c1cc2c(cc1CN1CCOCC1)CCc1cc(CN3CCOCC3)ccc1N2
dose: 15.0 mg/kg/injection, schedule: Q01DX005 (ip), vehicle: Klucel (hydroxypropylcellulose) (HPC)
  T/C: 101 % of control
dose: 30.0 mg/kg/injection, schedule: Q01DX005 (ip), vehicle: Klucel (hydroxypropylcellulose) (HPC)
  T/C: 100 % of control
[1]
  T/C: 94 % of control and 95 % of control

## Ic1ccc([I+]c2ccc(I)cc2)cc1
[2]
  T/C: 100 % of control
[3]
  T/C: 99 % of control
[4]
  T/C: 95 % of control
dose: 200.0 mg/kg/injection, schedule: Q01DX001 (ip), vehicle: saline with Tween-80
  T/C: 100 % of control
dose: 400.0 mg/kg/injection, schedule: Q01DX001 (ip), vehicle: saline with Tween-80
  T/C: 100 % of control

## O=C1NCCc2ccc(cc2)OC2CCNC2C(=O)N2CCCC12 (stereo unspecified)
dose: 12.5 mg/kg/injection, schedule: Q01DX005 (ip), vehicle: Klucel (hydroxypropylcellulose) (HPC)
  T/C: 96 % of control
dose: 25.0 mg/kg/injection, schedule: Q01DX005 (ip), vehicle: Klucel (hydroxypropylcellulose) (HPC)
  T/C: 107 % of control
[5]
  T/C: 100 % of control

## CCN(CCO)C(=O)Nc1ccc(Cl)cc1
dose: 60.0 mg/kg/injection, schedule: Q01DX005 (ip), vehicle: Klucel + Tween-80
  T/C: 99 % of control
dose: 120.0 mg/kg/injection, schedule: Q01DX005 (ip), vehicle: Klucel + Tween-80
  T/C: 101 % of control
dose: 240.0 mg/kg/injection, schedule: Q01DX005 (ip), vehicle: Klucel + Tween-80
  T/C: 100 % of control

## CCOC(=O)C1=C(C(=O)C(C)(C)C)C(c2ccc([N+](=O)[O-])cc2)C(C(=O)C(C)(C)C)=C(C(=O)OCC)N1
[1]
  T/C: 103 % of control
[6]
  T/C: 94 % of control
[7]
  T/C: 103 % of control

## O=S(=O)(Nc1ncccn1)c1ccc(N=Cc2c3ccccc3nc3ccccc23)cc1
dose: 12.5 mg/kg/injection, schedule: Q04DX002 (ip), vehicle: Klucel (hydroxypropylcellulose) (HPC)
  T/C: 96 % of control
dose: 25.0 mg/kg/injection, schedule: Q04DX002 (ip), vehicle: Klucel (hydroxypropylcellulose) (HPC)
  T/C: 99 % of control
dose: 50.0 mg/kg/injection, schedule: Q04DX002 (ip), vehicle: Klucel (hydroxypropylcellulose) (HPC)
  T/C: 93 % of control
dose: 100.0 mg/kg/injection, schedule: Q04DX002 (ip), vehicle: Klucel (hydroxypropylcellulose) (HPC)
  T/C: 99 % of control
dose: 200.0 mg/kg/injection, schedule: Q04DX002 (ip), vehicle: Klucel (hydroxypropylcellulose) (HPC)
  T/C: 91 % of control
dose: 400.0 mg/kg/injection, schedule: Q04DX002 (ip), vehicle: Klucel (hydroxypropylcellulose) (HPC)
  T/C: 96 % of control

## O=C1NC(=O)C(=Cc2cc3c(cc2Br)OCO3)C(=O)N1
[8]
  T/C: 101 % of control
dose: 50.0 mg/kg/injection, schedule: Q01DX009 (ip), vehicle: Klucel (hydroxypropylcellulose) (HPC)
  T/C: 101 % of control
[9]
  T/C: 114 % of control
dose: 100.0 mg/kg/injection, schedule: Q01DX009 (ip), vehicle: Klucel (hydroxypropylcellulose) (HPC)
  T/C: 117 % of control
[10]
  T/C: 110 % of control and 124 % of control
dose: 166.0 mg/kg/injection, schedule: Q01DX009 (ip), vehicle: saline with Tween-80
  T/C: 117 % of control
dose: 200.0 mg/kg/injection, schedule: Q01DX009 (ip), vehicle: Klucel (hydroxypropylcellulose) (HPC)
  T/C: 113 % of control
dose: 200.0 mg/kg/injection, schedule: Q01DX009 (ip), vehicle: saline with Tween-80
  T/C: 96 % of control

## O=C1C2=C(Nc3cc(Cl)ccc3N2)OC1c1ccccc1Cl (stereo unspecified)
[1]
  T/C: 95 % of control
[6]
  T/C: 94 % of control
[7]
  T/C: 104 % of control

## CCN(CC)N=Nc1ccccc1-c1nc(N)c2ccccc2n1
dose: 12.5 mg/kg/injection, schedule: Q04DX003 (ip), vehicle: Klucel (hydroxypropylcellulose) (HPC)
  T/C: 105 % of control
dose: 25.0 mg/kg/injection, schedule: Q04DX003 (ip), vehicle: Klucel (hydroxypropylcellulose) (HPC)
  T/C: 102 % of control and 103 % of control and 94 % of control
dose: 50.0 mg/kg/injection, schedule: Q04DX003 (ip), vehicle: Klucel (hydroxypropylcellulose) (HPC)
  T/C: 98 % of control and 111 % of control and 91 % of control
dose: 100.0 mg/kg/injection, schedule: Q04DX003 (ip), vehicle: Klucel (hydroxypropylcellulose) (HPC)
  T/C: 102 % of control (2×) and 94 % of control
dose: 200.0 mg/kg/injection, schedule: Q04DX003 (ip), vehicle: Klucel (hydroxypropylcellulose) (HPC)
  T/C: 106 % of control and 119 % of control and 86 % of control

## CC(C)(C)C1=CS(=O)(=O)C(C(C)(C)C)C(O)O1 (stereo unspecified)
[11]
  T/C: 100 % of control

## CCOC(=O)C(N)C[S][Sn]([CH3])([CH3])[Cl] (stereo unspecified)
[9]
  T/C: 91 % of control

## CC(=O)C(C(C)=O)[N+](=O)[O-].CC(=O)C(C(C)=O)[N+](=O)[O-].[Cu]
dose: 6.25 mg/kg/injection, schedule: Q01DX005 (ip), vehicle: saline with Tween-80
  T/C: 100 % of control
dose: 12.5 mg/kg/injection, schedule: Q01DX005 (ip), vehicle: saline with Tween-80
  T/C: 105 % of control

## CC(O)(c1ccccc1)C1C(c2ccccc2)N1Cc1ccccc1 (stereo unspecified)
dose: 50.0 mg/kg/injection, schedule: Q04DX003 (ip), vehicle: saline sonified
  T/C: 100 % of control
dose: 100.0 mg/kg/injection, schedule: Q04DX003 (ip), vehicle: saline sonified
  T/C: 91 % of control

## COC1/C=C/OC2(C)Oc3c(C)c(O)c4c(O)c(c(/C=N/N5C(C)CN(Cc6ccc(C(C)(C)C)cc6)CC5C)c(O)c4c3C2=O)NC(=O)/C(C)=C\C=C\C(C)C(O)C(C)C(O)C(C)C(OC(C)=O)C1C (stereo unspecified)
[11]
  T/C: 119 % of control
dose: 25.0 mg/kg/injection, schedule: Q01DX009 (ip), vehicle: suspension in saline
  T/C: 104 % of control
[9]
  T/C: 102 % of control and 94 % of control
dose: 50.0 mg/kg/injection, schedule: Q01DX009 (ip), vehicle: suspension in saline
  T/C: 108 % of control
[10]
  T/C: 119 % of control
dose: 100.0 mg/kg/injection, schedule: Q01DX009 (ip), vehicle: suspension in saline
  T/C: 100 % of control
dose: 200.0 mg/kg/injection, schedule: Q01DX009 (ip), vehicle: suspension in saline
  T/C: 95 % of control

## C#CCN1CC(OC)Nc2c(O)cccc2C1=O (stereo unspecified) (tested in a mixture with another compound)
dose: 2.5 mg/kg/injection, schedule: Q01DX005 (ip), vehicle: water
  T/C: 113 % of control
dose: 5.0 mg/kg/injection, schedule: Q01DX005 (ip), vehicle: water
  T/C: 110 % of control and 113 % of control
dose: 10.0 mg/kg/injection, schedule: Q01DX005 (ip), vehicle: water
  T/C: 123 % of control
dose: 20.0 mg/kg/injection, schedule: Q01DX005 (ip), vehicle: water
  T/C: 119 % of control and 123 % of control

## CC1CN=C(c2ccc(NC(=O)NCCCNC(=O)Nc3ccc(C4=NCC(C)N4)cc3)cc2)N1 (stereo unspecified)
[5]
  T/C: 153 % of control and 158 % of control

## CC1(C)C=CC2=C(O1)C(=O)c1ccccc1C2=O
dose: 25.0 mg/kg/injection, schedule: Q01DX009 (ip), vehicle: water
  T/C: 101 % of control
dose: 50.0 mg/kg/injection, schedule: Q01DX009 (ip), vehicle: water
  T/C: 107 % of control
dose: 100.0 mg/kg/injection, schedule: Q01DX009 (ip), vehicle: water
  T/C: 115 % of control
dose: 200.0 mg/kg/injection, schedule: Q01DX009 (ip), vehicle: water
  T/C: 110 % of control

## Cc1nnc2c(=O)n(C)ccn12
[2]
  T/C: 95 % of control
[3]
  T/C: 95 % of control
[4]
  T/C: 97 % of control

## CCN(CC)CCCC(C)Nc1cc(C)nc2cc(N(C)C)ccc12 (stereo unspecified)
dose: 6.25 mg/kg/injection, schedule: Q01DX009 (ip), vehicle: Klucel (hydroxypropylcellulose) (HPC)
  T/C: 99 % of control
dose: 12.5 mg/kg/injection, schedule: Q01DX009 (ip), vehicle: Klucel (hydroxypropylcellulose) (HPC)
  T/C: 101 % of control
[8]
  T/C: 109 % of control

## CC1(C)OC2CC(=O)OCC23C1CC(=O)C1(C)C3CCC2(C)C(c3ccoc3)OC(=O)C3OC321 (stereo unspecified)
dose: 50.0 mg/kg/injection, schedule: Q01DX010 (ip), vehicle: saline
  T/C: 100 % of control
dose: 100.0 mg/kg/injection, schedule: Q01DX010 (ip), vehicle: saline
  T/C: 95 % of control
dose: 200.0 mg/kg/injection, schedule: Q01DX010 (ip), vehicle: saline
  T/C: 95 % of control

## O=c1[nH]c2cc(Cl)ccc2nc1C1=C(O)c2ccccc2C1
dose: 60.0 mg/kg/injection, schedule: Q01DX005 (ip), vehicle: saline with Tween-80
  T/C: 89 % of control
dose: 120.0 mg/kg/injection, schedule: Q01DX005 (ip), vehicle: saline with Tween-80
  T/C: 89 % of control
dose: 240.0 mg/kg/injection, schedule: Q01DX005 (ip), vehicle: saline with Tween-80
  T/C: 110 % of control

## CN(C)CCOc1ccc2c(c1)CC/C(=C\c1ncc([N+](=O)[O-])n1C)C2=O
dose: 12.5 mg/kg/injection, schedule: Q01DX009 (ip), vehicle: saline with Tween-80
  T/C: 108 % of control
[11]
  T/C: 108 % of control
[9]
  T/C: 109 % of control and 118 % of control
